{"source": "patent US20090062355A1", "about": "“Pharmaceutical Product” (Takeda Pharmaceutical Company Limited, priority 2006, published 2009)", "key": {"[1]": {"tested_on": "mouse macrophage cell line RAW264.7 cells", "assay": "Suppressive action on production of cytokine from LPS stimulated macrophage (BioPlex cytokine assay)", "format": "cell-based", "conditions": "100 nM + LPS 10 ng/mL, overnight", "procedure": "A suppressive effect of test compound 1 (compound 72 of Reference Example B66) on the production of various cytokines by lipopolysaccharide (LPS), which is a TLR4 agonist, using mouse macrophage cell line RAW264.7 cells was examined. The day before the experiment, the cells were suspended to 1×10^6 cells/mL in RPMI1640 medium supplemented with 10% inactivated fetal bovine serum, plated on a 96 well microplate at 0.1 mL/well and incubated at 37° C., 5% CO2/95% air overnight. The medium was changed, and test compound 1 (final concentration 100 nM) and LPS (final concentration 10 ng/mL) were added. After overnight culture, the content of cytokine in the culture supernatant was quantified by BioPlex cytokine assay (Bio-Rad). Test compound 1 was dissolved in dimethyl sulfoxide (DMSO) to 10 mM, diluted with RPMI1640 medium supplemented with 1% inactivated fetal bovine serum to 0.1 mM, further diluted with the medium to 10-fold concentration of the final concentration and 1/10 thereof was added."}, "[2]": {"tested_on": "mouse macrophage cell line RAW264.7 cells", "assay": "Suppressive action on expression caused by gene induction by LPS stimulation (DNA Chip)", "format": "cell-based", "conditions": "100 nM + LPS 10 ng/mL, 6 hr", "procedure": "A suppressive effect of test compound 1 (compound 72 of • Reference Example B66) on the production of various mediators by lipopolysaccharide (LPS), which is a TLR4 agonist, in mouse macrophage cell line RAW264.7 cells was examined. The day before the experiment, the cells were suspended to 5×10^5 cells/mL in RPMI1640 medium supplemented with 10% inactivated fetal bovine serum, plated on a plate and incubated at 37° C., 5% CO2/95% air overnight. The medium was changed to RPMI1640 medium supplemented with 1% inactivated fetal bovine serum, and test compound 1 (final concentration 100 nM) and LPS (final concentration 10 ng/mL) were added. After culture for 6 hr, RNA was prepared by a conventional method and gene was analyzed using DNA Chip (Mu73A, Affimetrix) and Gene Spring ver. 4. The test substance was dissolved in N,N-dimethylformamide to 10 mM and diluted with a medium."}}}
{"smiles": "CCOC(=O)C1=CCCC[C@H]1S(=O)(=O)Nc1ccc(F)cc1Cl", "note": "[test compound 1, ethyl (6R)-6-[(2-chloro-4-fluoroanilino)sulfonyl]-1-cyclohexene-1-carboxylate]", "values": [{"measurement": "expression amount of cytokines: IL1beta", "setting": "[1]; control 0, LPS 97", "result": 2, "unit": "pg/mL"}, {"measurement": "expression amount of cytokines: IL12(p40)", "setting": "[1]; control 3, LPS 18", "result": 4, "unit": "pg/mL"}, {"measurement": "expression amount of cytokines: IL2", "setting": "[1]; control 3, LPS 20", "result": 8, "unit": "pg/mL"}, {"measurement": "expression amount of cytokines: IL3", "setting": "[1]; control 3, LPS 22", "result": 3, "unit": "pg/mL"}, {"measurement": "expression amount of cytokines: IFNgamma", "setting": "[1]; control 9, LPS 31", "result": 8, "unit": "pg/mL"}, {"measurement": "expression amount of cytokines: IL17", "setting": "[1]; control 9, LPS 50", "result": 13, "unit": "pg/mL"}, {"measurement": "expression amount of cytokines: KC", "setting": "[1]; control 10, LPS 79", "result": 22, "unit": "pg/mL"}, {"measurement": "expression amount of cytokines: IL12(p70)", "setting": "[1]; control 12, LPS 48", "result": 13, "unit": "pg/mL"}, {"measurement": "expression amount of cytokines: IL1alpha", "setting": "[1]; control 21, LPS 74", "result": 47, "unit": "pg/mL"}, {"measurement": "expression amount of cytokines: IL10", "setting": "[1]; control 25, LPS 80", "result": 20, "unit": "pg/mL"}, {"measurement": "expression amount of cytokines: RANTES", "setting": "[1]; control 31, LPS 1520", "result": 48, "unit": "pg/mL"}, {"measurement": "expression amount of cytokines: TNFalpha", "setting": "[1]; control 48, LPS 10483", "result": 125, "unit": "pg/mL"}, {"measurement": "expression amount of cytokines: GM-CSF", "setting": "[1]; control 53, LPS 135", "result": 85, "unit": "pg/mL"}, {"measurement": "expression amount of cytokines: IL6", "setting": "[1]; control 82, LPS 233", "result": 152, "unit": "pg/mL"}, {"measurement": "gene variation by LPS stimulation", "setting": "[2]; all genes analyzed that showed variation by LPS", "result": "suppressed almost all the gene variation analyzed"}, {"measurement": "expression of mRNA (fluorescence intensity): MMP-9", "setting": "[2]; control 0, LPS 3571.5", "result": 352.6}, {"measurement": "expression of mRNA (fluorescence intensity): bcl-3", "setting": "[2]; control 0, LPS 7512.6", "result": 158.7}, {"measurement": "expression of mRNA (fluorescence intensity): Guanylate binding protein-2", "setting": "[2]; control 0, LPS 8931.2", "result": 19.4}, {"measurement": "expression of mRNA (fluorescence intensity): RANTES", "setting": "[2]; control 0, LPS 12030.1", "result": 34.8}, {"measurement": "expression of mRNA (fluorescence intensity): IL-1 beta", "setting": "[2]; control 0, LPS 18712.2", "result": 424.9}, {"measurement": "expression of mRNA (fluorescence intensity): Cytokine inducible SH2-containing protein", "setting": "[2]; control 0, LPS 22669.3", "result": 2092.5}, {"measurement": "expression of mRNA (fluorescence intensity): MCP-3", "setting": "[2]; control 2.4, LPS 3159.0", "result": 46.5}, {"measurement": "expression of mRNA (fluorescence intensity): Adenosine A2b receptor", "setting": "[2]; control 2.7, LPS 2092.2", "result": 141.9}, {"measurement": "expression of mRNA (fluorescence intensity): inducible nitric oxide synthase", "setting": "[2]; control 9.3, LPS 1251.6", "result": 125.9}, {"measurement": "expression of mRNA (fluorescence intensity): COX-2", "setting": "[2]; control 24.4, LPS 13981.9", "result": 71.9}, {"measurement": "expression of mRNA (fluorescence intensity): CCR1", "setting": "[2]; control 26.5, LPS 1877.4", "result": 137.9}, {"measurement": "expression of mRNA (fluorescence intensity): IL-6", "setting": "[2]; control 26.7, LPS 5345.6", "result": 0}, {"measurement": "expression of mRNA (fluorescence intensity): IP-10", "setting": "[2]; control 40.1, LPS 12954.7", "result": 30.7}, {"measurement": "expression of mRNA (fluorescence intensity): Histidine decarboxylase", "setting": "[2]; control 44.3, LPS 4472.2", "result": 21.1}, {"measurement": "expression of mRNA (fluorescence intensity): IL-4 receptor", "setting": "[2]; control 84.4, LPS 7015.8", "result": 160.6}, {"measurement": "expression of mRNA (fluorescence intensity): MCP-1", "setting": "[2]; control 115.6, LPS 24184.7", "result": 336.8}, {"measurement": "expression of mRNA (fluorescence intensity): Fas antigen", "setting": "[2]; control 132.7, LPS 2507.5", "result": 202.7}, {"measurement": "expression of mRNA (fluorescence intensity): A20", "setting": "[2]; control 143.9, LPS 1044.3", "result": 204.0}, {"measurement": "expression of mRNA (fluorescence intensity): IL-1 receptor antagonist", "setting": "[2]; control 156.9, LPS 21942.3", "result": 538.2}, {"measurement": "expression of mRNA (fluorescence intensity): P2X4", "setting": "[2]; control 193.0, LPS 1239.3", "result": 227.0}, {"measurement": "expression of mRNA (fluorescence intensity): plasminogen activator inhibitor", "setting": "[2]; control 199.1, LPS 15207.5", "result": 67.5}, {"measurement": "expression of mRNA (fluorescence intensity): TNF receptor associated factor", "setting": "[2]; control 213.6, LPS 2457.3", "result": 311.4}, {"measurement": "expression of mRNA (fluorescence intensity): IL-10", "setting": "[2]; control 221.8, LPS 6617.9", "result": 128.1}, {"measurement": "expression of mRNA (fluorescence intensity): Janus kinase 2", "setting": "[2]; control 228.3, LPS 2175.1", "result": 310.9}, {"measurement": "expression of mRNA (fluorescence intensity): argininosuccinate synthetase", "setting": "[2]; control 376.7, LPS 8623.2", "result": 478.9}, {"measurement": "expression of mRNA (fluorescence intensity): Major histocompatibility complex", "setting": "[2]; control 378.5, LPS 3399.6", "result": 353.0}, {"measurement": "expression of mRNA (fluorescence intensity): serum amyloid A", "setting": "[2]; control 393.1, LPS 24253.2", "result": 1041.0}, {"measurement": "expression of mRNA (fluorescence intensity): Caspase-11", "setting": "[2]; control 436.0, LPS 6975.7", "result": 763.5}, {"measurement": "expression of mRNA (fluorescence intensity): Phosphatase PAC1", "setting": "[2]; control 653.7, LPS 12520.7", "result": 765.9}, {"measurement": "expression of mRNA (fluorescence intensity): G-CSF", "setting": "[2]; control 698.4, LPS 18440.5", "result": 844.9}, {"measurement": "expression of mRNA (fluorescence intensity): IL-18", "setting": "[2]; control 708.7, LPS 4881.4", "result": 429.4}, {"measurement": "expression of mRNA (fluorescence intensity): MIP-2", "setting": "[2]; control 819.2, LPS 12542.9", "result": 3055.0}, {"measurement": "expression of mRNA (fluorescence intensity): TNF receptor", "setting": "[2]; control 906.2, LPS 24864.6", "result": 3467.0}, {"measurement": "expression of mRNA (fluorescence intensity): Fc receptor", "setting": "[2]; control 1244.4, LPS 20683.4", "result": 982.5}, {"measurement": "expression of mRNA (fluorescence intensity): Interferon regulatory factor", "setting": "[2]; control 1491.7, LPS 7554.9", "result": 1356.3}, {"measurement": "expression of mRNA (fluorescence intensity): Galectin-9", "setting": "[2]; control 1904.3, LPS 19639.3", "result": 3639.2}]}
